Experimental findings from PubChem BioAssay (NCI) are described below.

Among the test systems are U251 CNS; SN12C renal; CAKI-1 renal; LOX IMVI melanoma; TK-10 renal; SR leukemia; SK-MEL-28 melanoma; SNB-75 CNS; HCT-116 colon; NCI/ADR-RES ovarian.
Holding throughout (experiment): NCI anticancer screen, dose series, 48 h

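Compound exposure: 48 hours, 5 concentrations, 96-well plates. GI50 marks 50% less growth. TGI is the concentration that stops growth completely.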

Take `NC(=O)CCCC(NCc1c2ccccc2nc2ccccc12)C(=O)O` (stereo not given): the TGI with U251 CNS is over 100 µM; in the test on SN12C renal, over 100 µM; in the test with CAKI-1 renal it was 96.2 µM; in the test on LOX IMVI melanoma it was over 100 µM; in the test with TK-10 renal, over 100 µM; with SR leukemia it was over 100 µM. For the same compound, the TGI in the test on SK-MEL-28 melanoma and in the test with SNB-75 CNS was over 100 µM in each case.

Regarding `CCCCCCCSc1nc2c(C(=O)OCC)ncn2c2ccccc12`, the TGI in the test on U251 CNS, in the test with SN12C renal, in the test with HCT-116 colon, in the test with LOX IMVI melanoma, in the test on TK-10 renal and in the test with SR leukemia was over 100 µM each time. Moreover, the TGI in the test on SK-MEL-28 melanoma is over 100 µM.

On to `N#CC(c1ccccc1)c1nc2ccc(=N)cc-2n(O)c1C(C#N)c1ccccc1` (stereo not given), for which the TGI with U251 CNS, in the test with SN12C renal, in the test on HCT-116 colon, in the test on CAKI-1 renal, in the test on LOX IMVI melanoma and with TK-10 renal was over 100 µM each time. For the same compound, the TGI with SR leukemia and in the test with SK-MEL-28 melanoma was over 100 µM in each case.

With `COC(=O)C1=CSC2(S1)C(C(=O)OC)=CSc1c2ssc1=Nc1ccccc1` (stereo not given), the TGI is 10.1 µM with U251 CNS; 4.3 µM in the test with SN12C renal; 4.06 µM in the test with HCT-116 colon; 32.9 µM with CAKI-1 renal; 4.1 µM in the test on LOX IMVI melanoma; 10.4 µM in the test with TK-10 renal. For the same compound, the TGI with SR leukemia was 3.56 µM; with SK-MEL-28 melanoma, 5.76 µM; in the test with SNB-75 CNS it was 6.09 µM; in the test on NCI/ADR-RES ovarian it was 3.8 µM.

On to `O=c1oc2ccccc2c2c(=O)c3ccc(OC/C(=N/O)c4ccc(Cl)cc4)cc3oc12`, for which the TGI in the test with U251 CNS worked out at 23.3 µM; in the test on SN12C renal, 51.2 µM; with HCT-116 colon, 24 µM; in the test with CAKI-1 renal, 24 µM; with LOX IMVI melanoma, 31.9 µM; with SR leukemia, 8.27 µM. In the test on NCI/ADR-RES ovarian, this compound yielded a TGI of 31.4 µM.

On to `CN(C)CCNc1nc(-c2ccc3ccccc3c2)nc2nc[nH]c12`, for which the TGI in the test on U251 CNS was 31 µM; in the test on SN12C renal, 26.3 µM; with HCT-116 colon it was 24.6 µM; in the test on CAKI-1 renal it was 20.6 µM; in the test on LOX IMVI melanoma, 18.8 µM; with TK-10 renal, 19.4 µM. In addition, the TGI in the test with SR leukemia is 24.7 µM; in the test on SK-MEL-28 melanoma it was 28.9 µM; with SNB-75 CNS, 4.44 µM; in the test with NCI/ADR-RES ovarian, 22.9 µM.

On to `Cc1ccc(S(=O)(=O)NCCSCCNS(=O)(=O)c2ccc(C)cc2)cc1`, for which the TGI with U251 CNS, with SN12C renal, in the test on HCT-116 colon, with LOX IMVI melanoma, in the test with TK-10 renal and in the test with SR leukemia was over 100 µM in each case. The TGI in the test with SK-MEL-28 melanoma, with SNB-75 CNS and in the test on NCI/ADR-RES ovarian was over 100 µM each time.

`Cc1ccc(Oc2ccc(C)cc2[N+](=O)[O-])cc1`: the TGI in the test on U251 CNS, in the test on SN12C renal, in the test on HCT-116 colon, in the test with LOX IMVI melanoma, in the test on TK-10 renal and with SR leukemia was over 100 µM in each case. Moreover, the TGI in the test with SK-MEL-28 melanoma and in the test on SNB-75 CNS was over 100 µM throughout.

As to `CC(=O)C(O)N1C(=O)C=CC1=O` (stereo not given), the GI50 in the test with NCI/ADR-RES ovarian was 12000 µM.

For the compound `CC(=O)Nc1ccccc1SCCSSCCSc1ccccc1NC(C)=O`, the TGI with U251 CNS was 70.2 µM; with SN12C renal it was over 100 µM; in the test with HCT-116 colon, over 100 µM; with CAKI-1 renal, 83.4 µM; with LOX IMVI melanoma, 38.7 µM; in the test on TK-10 renal, over 100 µM. The TGI in the test on SR leukemia is over 100 µM; in the test on SNB-75 CNS, 73.2 µM; in the test on NCI/ADR-RES ovarian, 94.8 µM.

Regarding `CN(C)c1ccc(/C=N\NC(=O)CSCC(=O)N/N=C/c2ccc(N(C)C)cc2)cc1`, the TGI in the test on U251 CNS, in the test with SN12C renal, in the test with HCT-116 colon, in the test with CAKI-1 renal, with LOX IMVI melanoma and in the test on TK-10 renal was over 100 µM throughout. Also, the TGI in the test with SR leukemia, with SK-MEL-28 melanoma, in the test on SNB-75 CNS and in the test with NCI/ADR-RES ovarian was over 100 µM each time.

Take `O=c1ccc2cc(O)c(O)cc2o1`: the TGI in the test on U251 CNS, in the test on SN12C renal, in the test on HCT-116 colon, with CAKI-1 renal, in the test with LOX IMVI melanoma and in the test with TK-10 renal was over 100 µM each time. Moreover, the TGI in the test on SR leukemia, with SK-MEL-28 melanoma, in the test on SNB-75 CNS and with NCI/ADR-RES ovarian was over 100 µM in each case.

With `NC(=O)NN=C(CS)CS`, the TGI with U251 CNS is 43.6 µM; in the test on SN12C renal it was 55 µM; in the test with HCT-116 colon, over 100 µM; in the test with CAKI-1 renal it was 42.9 µM; with LOX IMVI melanoma, 40.3 µM; in the test with SK-MEL-28 melanoma, 80.8 µM. Also, the results for the TGI in the test on SNB-75 CNS and in the test on NCI/ADR-RES ovarian were over 75.3 µM and 71.9 µM, respectively.

For `O=C(O[C@H]1[C@@H](O)[C@H](n2cnc3c(Cl)ncnc32)O[C@@H]1COC(c1ccccc1)(c1ccccc1)c1ccccc1)c1ccccc1`, the TGI is 59.2 µM with U251 CNS; 30.6 µM in the test on SN12C renal; over 100 µM in the test with HCT-116 colon; 10.1 µM in the test with CAKI-1 renal; over 100 µM with LOX IMVI melanoma; over 100 µM in the test with TK-10 renal. Moreover, the TGI in the test with SR leukemia is 18.6 µM; with SK-MEL-28 melanoma it was over 100 µM; with SNB-75 CNS it was over 100 µM; with NCI/ADR-RES ovarian it was over 100 µM.

As for `CCCN(C(=O)c1c(Cl)nnc(Cl)c1C(=O)c1cc(Cl)nnc1Cl)c1cc(Cl)nnc1Cl`, the TGI in the test with U251 CNS was found to be 33.3 µM; with SN12C renal, 26.1 µM; in the test with HCT-116 colon it was 19.6 µM; in the test with CAKI-1 renal, 22.3 µM; in the test with LOX IMVI melanoma, 18.5 µM; with TK-10 renal, 32.2 µM. The TGI amounted to 20.3 µM in the test on SR leukemia, 28.1 µM in the test on SK-MEL-28 melanoma, 32.5 µM with SNB-75 CNS and 69.1 µM with NCI/ADR-RES ovarian.

With `C/C=C/[P+](c1ccccc1)(c1ccccc1)c1ccccc1`, the TGI in the test with U251 CNS is 15.1 µM; in the test on SN12C renal, 16.5 µM; with HCT-116 colon it was 20.6 µM; in the test on CAKI-1 renal it was over 100 µM; in the test on LOX IMVI melanoma, 7.26 µM; in the test on TK-10 renal, 20.3 µM. The TGI was 2.58 µM in the test on SR leukemia, 17.5 µM with SK-MEL-28 melanoma, 19.9 µM in the test on SNB-75 CNS and over 100 µM in the test on NCI/ADR-RES ovarian.
